± gives the expanded uncertainty stated by the source.
Assay: mn = molality of the nth substance listed, in mol/kg
Conditions: 100 kPa, Liquid; for speed of sound: Frequency=3 MHz, Single path-length method; for mass density: Vibrating tube method

OCCO [1,2-ethanediol] + O
Conditions	mass density, m1 = 0.09889 [kg/m3]	mass density, m1 = 0.1989 [kg/m3]	mass density, m1 = 0.2997 [kg/m3]	mass density, m1 = 0.3948 [kg/m3]	mass density, m1 = 0.5016 [kg/m3]	speed of sound, m1 = 0.09889 [m/s]	speed of sound, m1 = 0.1989 [m/s]	speed of sound, m1 = 0.2997 [m/s]	speed of sound, m1 = 0.3948 [m/s]	speed of sound, m1 = 0.5016 [m/s]
293.15 K	999.06 ± 0.3	999.88 ± 0.3	1000.68 ± 0.31	1001.41 ± 0.31	1002.2 ± 0.31	1485.3 ± 2	1488.3 ± 2	1491.2 ± 2	1493.9 ± 2	1496.8 ± 2
303.15 K	996.47 ± 0.3	997.26 ± 0.3	998.03 ± 0.31	998.73 ± 0.31	999.48 ± 0.31	1511.1 ± 2	1513.8 ± 2	1516.2 ± 2	1518.7 ± 2	1521.2 ± 2

OCCOCCO [diethylene glycol] + O
Conditions	mass density, m1 = 0.09849 [kg/m3]	mass density, m1 = 0.1974 [kg/m3]	mass density, m1 = 0.295 [kg/m3]	mass density, m1 = 0.4101 [kg/m3]	mass density, m1 = 0.5006 [kg/m3]	speed of sound, m1 = 0.09849 [m/s]	speed of sound, m1 = 0.1974 [m/s]	speed of sound, m1 = 0.295 [m/s]	speed of sound, m1 = 0.4101 [m/s]	speed of sound, m1 = 0.5006 [m/s]
293.15 K	999.65 ± 0.3	1001.03 ± 0.31	1002.36 ± 0.31	1003.86 ± 0.32	1004.99 ± 0.33	1487.7 ± 2	1493.1 ± 2	1498.1 ± 2	1504.1 ± 2.1	1508.3 ± 2.1
303.15 K	997.07 ± 0.3	998.39 ± 0.31	999.64 ± 0.31	1001.05 ± 0.32	1002.15 ± 0.32	1513.1 ± 2	1517.6 ± 2	1522 ± 2	1526.9 ± 2	1530.6 ± 2.1

OCC(O)CO [glycerol] + O
Conditions	mass density, 293.15 K [kg/m3]	mass density, 298.15 K [kg/m3]	mass density, 303.15 K [kg/m3]	mass density, 308.15 K [kg/m3]	speed of sound, 293.15 K [m/s]	speed of sound, 298.15 K [m/s]	speed of sound, 303.15 K [m/s]	speed of sound, 308.15 K [m/s]
m1 = 0.01	998.45 ± 0.3	997.31 ± 0.3	995.87 ± 0.3	994.25 ± 0.3	1483.2 ± 2	1497 ± 2	1509.3 ± 2	1519.9 ± 2
m1 = 0.03	998.87 ± 0.3	997.71 ± 0.3	996.3 ± 0.3	994.68 ± 0.3	1484 ± 2	1497.8 ± 2	1510 ± 2	1520.6 ± 2
m1 = 0.05	999.29 ± 0.3	998.12 ± 0.3	996.72 ± 0.3	995.09 ± 0.3	1484.8 ± 2	1498.6 ± 2	1510.7 ± 2	1521.2 ± 2

OCCOCCOCCO [triethylene glycol] + O
Conditions	mass density, m1 = 0.0965 [kg/m3]	mass density, m1 = 0.2002 [kg/m3]	mass density, m1 = 0.292 [kg/m3]	mass density, m1 = 0.3986 [kg/m3]	mass density, m1 = 0.4988 [kg/m3]	speed of sound, m1 = 0.0965 [m/s]	speed of sound, m1 = 0.2002 [m/s]	speed of sound, m1 = 0.292 [m/s]	speed of sound, m1 = 0.3986 [m/s]	speed of sound, m1 = 0.4988 [m/s]
293.15 K	1000.31 ± 0.31	1002.46 ± 0.31	1004.29 ± 0.32	1006.36 ± 0.34	1008.22 ± 0.36	1489.9 ± 2	1498 ± 2	1504.8 ± 2.1	1513.1 ± 2.1	1520.5 ± 2.2
303.15 K	997.73 ± 0.31	999.86 ± 0.31	1001.67 ± 0.32	1003.69 ± 0.34	1005.54 ± 0.35	1514.9 ± 2	1521.8 ± 2	1528 ± 2.1	1535.1 ± 2.1	1541.7 ± 2.1

O [water] + OCC(O)CO
m2 = 0
Conditions	speed of sound [m/s]
298.15 K	1495.9 ± 2
303.15 K	1508.5 ± 2
308.15 K	1519.1 ± 2

O [water] + OCCO
Conditions	speed of sound [m/s]
303.15 K, m2 = 0	1508.5 ± 2

O [water] + OCCOCCO
Conditions	speed of sound [m/s]
303.15 K, m2 = 0	1508.5 ± 2

O [water] + OCCOCCOCCO
Conditions	speed of sound [m/s]
303.15 K, m2 = 0	1508.5 ± 2

Source: the NIST ThermoML archive (doi:10.1016/j.jct.2018.05.016)
